From US8802597B2, “Herbicidal pyrimidines” (E I du Pont de Nemours and Company, priority 2003, dated 2014)

Columns and labels:
Assay in all cases: Test C pre/postemergence
Format in all cases: in vivo
[1] = test system: bermudagrass (Cynodon dactylon); settings: Postemergence; for Bermudagrass plant response rating: scale 0 to 100 (0 no effect, 100 complete control)
In short: (§1)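 Greenhouse herbicide screen, visual readout. Compound in solvent/surfactant applied preemergence at planting or postemergence to 1- to 4-leaf plants; assessed at 12–14 days on a 0–100 control scale.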

[2] = test system: cocklebur (Xanthium strumarium); settings: Postemergence
In short: as §1

[3] = test system: common ragweed (Ambrosia elatior); settings: Postemergence
In short: as §1

[4] = test system: goosegrass (Eleusine indica); settings: Postemergence
In short: as §1

[5] = test system: johnsongrass (Sorghum halepense); settings: Postemergence
In short: as §1

[6] = test system: kochia (Kochia scoparia); settings: Postemergence
In short: as §1

[7] = test system: lambsquarters (Chenopodium album); settings: Postemergence
In short: as §1

[8] = test system: pigweed (Amaranthus retroflexus); settings: Postemergence
In short: as §1

[9] = test system: soybean (Glycine max); settings: Postemergence
In short: as §1

[10] = test system: velvetleaf (Abutilon theophrasti); settings: Postemergence
In short: as §1

[11] = 125 g ai/ha, scale 0 to 100 (0 no effect, 100 complete control)

Nc1nc(-c2ccc(Br)cc2)nc(C(=O)O)c1Br [Compound 136]
50: Plant response rating (scale of 0 to 100), Goosegrass ([4]; 16 g ai/ha)
75: Plant response rating (scale of 0 to 100), Bermudagrass ([1]; 16 g ai/ha) | Plant response rating (scale of 0 to 100), Ragweed ([3]; 16 g ai/ha) | Plant response rating (scale of 0 to 100), Goosegrass ([4]; 62 g ai/ha) | Plant response rating (scale of 0 to 100), Kochia ([6]; 16 g ai/ha)
80: Plant response rating (scale of 0 to 100), Bermudagrass ([1]; 31 g ai/ha) | Bermudagrass plant response rating ([1]; 62 g ai/ha) | Goosegrass plant response rating [4, 11] | Plant response rating (scale of 0 to 100), Kochia ([6]; 31 g ai/ha)
85: Bermudagrass plant response rating ([1]; 125 g ai/ha) | Plant response rating (scale of 0 to 100), Ragweed ([3]; 31 g ai/ha) | Plant response rating (scale of 0 to 100), Johnsongrass ([5]; 31 g ai/ha) | Plant response rating (scale of 0 to 100), Johnsongrass ([5]; 62 g ai/ha) | Plant response rating (scale of 0 to 100), Velvetleaf ([10]; 16 g ai/ha) | Plant response rating (scale of 0 to 100), Velvetleaf ([10]; 31 g ai/ha)
100: Plant response rating (scale of 0 to 100), Cocklebur ([2]; 31 g ai/ha) | Plant response rating (scale of 0 to 100), Cocklebur ([2]; 62 g ai/ha) | Cocklebur plant response rating [2, 11] | Plant response rating (scale of 0 to 100), Pigweed ([8]; 31 g ai/ha) | Plant response rating (scale of 0 to 100), Pigweed ([8]; 62 g ai/ha) | Pigweed plant response rating [8, 11] | Plant response rating (scale of 0 to 100), Soybean ([9]; 31 g ai/ha) | Plant response rating (scale of 0 to 100), Soybean ([9]; 62 g ai/ha) | Soybean plant response rating [9, 11]
65: Plant response rating (scale of 0 to 100), Goosegrass ([4]; 31 g ai/ha)
95: Plant response rating (scale of 0 to 100), Cocklebur ([2]; 16 g ai/ha) | Ragweed plant response rating [3, 11] | Johnsongrass plant response rating [5, 11] | Plant response rating (scale of 0 to 100), Lambsquarters ([7]; 16 g ai/ha) | Plant response rating (scale of 0 to 100), Lambsquarters ([7]; 31 g ai/ha) | Plant response rating (scale of 0 to 100), Lambsquarters ([7]; 62 g ai/ha) | Lambsquarters plant response rating [7, 11] | Plant response rating (scale of 0 to 100), Soybean ([9]; 16 g ai/ha) | Velvetleaf plant response rating [10, 11]
60: Plant response rating (scale of 0 to 100), Johnsongrass ([5]; 16 g ai/ha)
90: Plant response rating (scale of 0 to 100), Ragweed ([3]; 62 g ai/ha) | Plant response rating (scale of 0 to 100), Kochia ([6]; 62 g ai/ha) | Kochia plant response rating [6, 11] | Plant response rating (scale of 0 to 100), Pigweed ([8]; 16 g ai/ha) | Plant response rating (scale of 0 to 100), Velvetleaf ([10]; 62 g ai/ha)
